Measurements published in patent US12653860B2, “Compositions and methods for editing beta-globin for treatment of hemaglobinopathies” (Vertex Pharmaceuticals Incorporated, priority 2019, dated 2026).
Entries after “also recorded” stand apart in the source; their conditions may differ.

Experiments:
[1] = tested on: HBB locus in CD34-expressing LT-HSPCs; assay: HDR insertion of AAV GFP donor at HBB locus (GFP fluorescence); format: cell-based, human; conditions: for HDR efficiency: 0.75 g mRNA encoding i53, 5 μM Nu7441, DM control mRNA, FIG. 6C
Description: Frozen CD34-expressing LT-HSPCs derived from plerixafor (i.e., Mozibil®)+GCSF-dual mobilized peripheral blood obtained from healthy human donors were purchased from a commercial vendor. LT-HSPCs were maintained in culture media comprised of the reagents shown in Table 4 and were incubated at 37° C., 5% carbon dioxide, 4% oxygen. […] 2×10^5 cells were edited with 3 g Cas9 and 3 g gRNA. The target gene sequence (including target sequence with PAM), R02 spacer sequence, and R02 sgRNA sequence are identified in Table 3.
The cells were transfected with a dsDNA homology donor encoding GFP under a SFFV promoter (SEQ ID NO: 60) that was delivered by AAV (SEQ ID NO: 56). […] The HDR efficiency was determined by measuring the level of GFP fluorescence in the cells following electroporation. To determine the effect of 53BP1 inhibition on HDR efficiency, the 53BP1 inhibitor i53 was introduced as an mRNA-encoded protein to the cells during electroporation with Cas9/gRNA RNP and AAV DNA that serves as a donor for homology directed repair.
The effect of 53BP1 inhibition on HDR efficiency was compared to other mRNA-encoded proteins that inhibit the NHEJ pathway. These included the proteins CYREN1 and CYREN2 that inhibit Ku70/80, a heterodimer that binds DNA blunt ends to prevent processing of 3′ single-stranded DNA tails necessary for HDR repair. Cells were electroporated with RNP, an AAV-GFP homology donor and mRNA encoding either i53 (mRNA ORF shown in SEQ ID NO: 69), CYREN1, or CYREN2.
The effect of treatment with i53 and Nu7441 was compared for improving efficiency of HDR repair of the HBB locus. Cells were treated with different doses of Nu7441 or with mRNA encoding i53 (ORF shown by SEQ ID NO: 69).

cKit mice [2] = assay: Lineage analysis of engrafted human CD45-expressing cells in mouse bone marrow; format: in vivo
Description: (§1) Presence of human hematopoietic cells was measured by flow cytometry in mouse blood or bone marrow samples. Cells were gated on singlet, live cells. Mouse and human CD45-expressing hematopoietic cells were distinguished by antibodies targeting mouse or human CD45. Engraftment was measured as percent chimerism which was defined as the quantity of human CD45 positive cells divided by the total number of CD45 positive cells (e.g., human and mouse CD45 expressing cells combined). The lineage of human CD45 positive cells was determined using markers for CD19 (e.g., B cells), CD3 (e.g., T cells), CD33 (e.g., myeloid cells), and CD34 (hematopoietic stem/progenitor cells (HSPCs)).
Shown in FIGS. 18A-18B is lineage analysis of engrafted CD45-expressing human cells in mouse bone marrow samples collected at 16 weeks post administration of LT-HSPCs. The lineage of CD45-expressing human leukocytes was evaluated for unedited LT-HSPCs administered at a dose of 0.01×10^6, 0.05×10^6, 0.1×10^6, or 0.25×10^6 cells (FIG. 18A). The lineage of CD45-expressing human leukocytes was also evaluated for LT-HSPCs edited with AAV+RNP either in the presence or absence of i53 (FIG. 18B).
Shown in FIG. 25 is lineage analysis of engrafted CD45-expressing human cells in mouse bone marrow samples collected at 16 weeks post administration of LT-HSPCs. […]

[3] = tested on: HBB locus in CD34-expressing LT-HSPCs; assay: HDR incorporation of sickle (E7V) edit at HBB locus in vitro, NGS assay; format: cell-based, human; conditions: for incorporation of the E7V gene edit: 1 μg mRNA encoding i53
Excerpt: (§2) The cells were electroporated with 1 g mRNA encoding i53.

cKit mice [4] = assay: Engraftment (percent chimerism) of edited human LT-HSPCs in irradiated mice; format: in vivo; conditions: for chimerism in bone marrow: FIG. 24B
Description: The cells were administered by intravenous injection to cKit mice at 2 days following electroporation. Recipient mice were treated with sublethal irradiation (100 cGy) at 1 day prior to administration of LT-HSPCs to eliminate hematopoietic cells in the bone marrow and enable engraftment of the donor cells. Animals were evaluated for presence of human hematopoietic cells in peripheral blood at 8 and 16 weeks following LT-HSPC administration. The bone marrow was also evaluated for engraftment and maintenance of the HBB gene-edit at 16 weeks following LT-HSPC administration.
as §1
Human LT-HSPCs were administered to mice following electroporation with Cas9/gRNA and AAV encoding a sickle cell mutation (E7V) as shown in FIG. 21. LT-HSPCs were mobilized from healthy donors using plerixafor. LT-HSPCs were gene-edited following 2 days in culture. […] 1×10^6 cells were edited with 20 g Cas9 and 20 g gRNA.
A dose of 0.5×10^6 cells was administered by intravenous injection to cKit mice at 2 days following electroporation. Recipient mice were treated with sublethal irradiation (100 cGy) at 1 day prior to administration of LT-HSPCs to eliminate hematopoietic cells in the bone marrow and enable engraftment of the donor cells. Animals were evaluated for presence of human hematopoietic cells in peripheral blood at 8 and 16 weeks following LT-HSPC administration. The bone marrow was also evaluated for engraftment and maintenance of the HBB gene-edit at 16 weeks following LT-HSPC administration.

[5] = tested on: HBB locus in CD34-expressing LT-HSPCs; assay: Indel formation at HBB locus in vitro by TIDE analysis; format: cell-based, human; conditions: FIG. 11
Description: as §2
Editing efficiency at the HBB locus was evaluated by measuring indel formation by TIDE analysis. […] This group had 1.7-fold reduction in INDEL frequency relative to cells treated with RNP+AAV,

[6] = tested on: HBB gene in CD34-expressing LT-HSPCs derived from human patients with sickle cell disease; assay: INDELs at R02 cut site in SCD patient-derived LT-HSPCs, NGS; format: cell-based; conditions: FIG. 30B
Description: Editing of cells was performed following two days of in vitro culture. Briefly, 5×10^5 cells were electroporated with RNP containing 20 g SpCas9 and 20 μg R02 sgRNA, AAV.323 at a dose of 10,000 MOI, and 1 g mRNA encoding i53. The cells were incubated with AAV.323 for 1 hour prior to electroporation. The cells were edited by electroporation with R02+AAV.323+i53 mRNA and compared to control cells edited with R02 only, R02+AAV.323, or cells exposed to electroporation without RNP or AAV editing components (mock EP).
The efficiency of gene correction by HDR repair at the HBB gene locus was evaluated by NGS assay as described in Example 3. Frequency of INDELs at the R02 cut site was evaluated by NGS analysis. […] Additionally, HDR repair and INDEL formation were compared at day 0 and day 14 post-editing.

Row | Compound | HDR efficiency [1] | lineage of human leukocytes in bone marrow (cKit mice [2]; 16 weeks, compared to treatment with i53, FIG. 25) | HDR efficiency over RNP+AAV alone ([3]; 5 μM Nu7441, pre-EP AAV.304, FIG. 22B) | chimerism in blood, fold increase over RNP+AAV alone (cKit mice [4]; 8 and 16 weeks, 5 μM Nu7441, FIG. 23B) | chimerism in bone marrow (cKit mice [4]; 16 weeks, AAV.304) | chimerism in blood (cKit mice [4]; both 8 and 16 weeks, 5 μM Nu7441, AAV.304, FIG. 23B) | HDR efficiency vs RNP+AAV-only ([1]; i53 mRNA 0.5, 1, 2 g (FIG. 6A) or 0.3 g, 1 g (FIG. 6B), CYREN1 or CYREN2 mRNA, any dose of XL413 (data not shown)) | HDR efficiency, fold increase over RNP+AAV-only ([1]; mRNA encoding i53, AAV GFP donor 5,000 MOI, FIG. 6A) | lineage distribution of engrafted cells (cKit mice [2]; bone marrow 16 weeks, edited vs un-edited LT-HSPCs, FIG. 18B) | level of indel formation [5] | incorporation of the E7V gene edit ([3]; pre-EP AAV.304, FIG. 22B) | incorporation of the E7V gene edit ([3]; AAV.307 + Cas9/R02 RNP, FIG. 10) | cells incorporating the sickle cell gene-edit ([3]; LT-HSPCs mobilized by Mozobil alone, i53, FIG. 12B) | HDR efficiency, fold increase over RNP+AAV alone ([3]; LT-HSPCs mobilized by Mozobil+GCSF, FIG. 12A) | incorporation of the sickle cell gene-edit by HDR ([3]; LT-HSPCs mobilized by Mozobil+GCSF, i53, FIG. 12A) | percent chimerism in bone marrow (cKit mice [4]; 16 weeks, 0.25×10^6 LT-HSPCs, AAV.307, FIG. 16) | levels of chimerism in blood (cKit mice [4]; blood 8 and 16 weeks, 0.5×10^6 cells, AAV.304, FIG. 23B) | frequency of INDELs at the R02 cut site, fold lower than RNP+AAV.323 alone [6]
1 | O=c1cc(N2CCOCC2)oc2c(-c3cccc4c3sc3ccccc34)cccc12 [Nu7441] | comparable increase in HDR efficiency | greater proportion of CD34-expressing cells and myeloid cells | no improvement of HDR efficiency | 2.5 fold | higher than RNP+AAV alone | approximately 25% | – | – | – | – | – | – | – | – | – | – | – | –
2 | i53: polypeptide inhibitor of 53BP1 (SEQ ID NO: 70), delivered as mRNA (ORF SEQ ID NO: 69) | comparable increase in HDR efficiency | – | – | – | comparable to RNP+AAV alone | – | improved HDR efficiency; also recorded: increased HDR efficiency | approximately 1.3 fold | no gross changes in lineage distribution | lowest level of indel formation | 58% | 68% | approximately 70% | approximately 1.5 fold | approximately 60% | no further decrease in chimerism | comparable to RNP+AAV alone | 1.9 fold
